Source: patent US20250320206A1, “STAT6 DEGRADERS” (Gilead Sciences, Inc., priority 2024, published 2025)

How the values were obtained:
[1] = tested on: Eotaxin-3 release in human whole blood stimulated with IL-4; assay: Human Whole Blood Eotaxin-3 Assay (IL-4 stimulated eotaxin-3 release); format: cell-based; conditions: IL-4 stimulation, 48 h, values given for compounds with >80% Emax, geometric mean
In short: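 Lithium-heparin human whole blood preincubated 2 h at 37° C with 4-fold serially diluted compounds (0.5% DMSO), then stimulated with recombinant human IL-4 ([…]) for 48 h. Eotaxin-3 (CCL26) in supernatant quantified by MSD immunoassay.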

[2] = target: T1, STAT6 (Homo sapiens, UniProt P42226); assay: Stat6 Degrader Assay (HiBiT based, HeLa LgBiT clone 4.14); format: cell-based; conditions: HeLa LgBiT clone 4.14 HiBiT-STAT6, 4-24 h incubation; values given for compounds with >80% Emax; geometric mean; read-out: STAT6 degradation DC50
T1 construct: These cells express endogenous STAT6; host or cells: HeLa LgBiT clone 4.14
T1 sequence (P42226 1-847): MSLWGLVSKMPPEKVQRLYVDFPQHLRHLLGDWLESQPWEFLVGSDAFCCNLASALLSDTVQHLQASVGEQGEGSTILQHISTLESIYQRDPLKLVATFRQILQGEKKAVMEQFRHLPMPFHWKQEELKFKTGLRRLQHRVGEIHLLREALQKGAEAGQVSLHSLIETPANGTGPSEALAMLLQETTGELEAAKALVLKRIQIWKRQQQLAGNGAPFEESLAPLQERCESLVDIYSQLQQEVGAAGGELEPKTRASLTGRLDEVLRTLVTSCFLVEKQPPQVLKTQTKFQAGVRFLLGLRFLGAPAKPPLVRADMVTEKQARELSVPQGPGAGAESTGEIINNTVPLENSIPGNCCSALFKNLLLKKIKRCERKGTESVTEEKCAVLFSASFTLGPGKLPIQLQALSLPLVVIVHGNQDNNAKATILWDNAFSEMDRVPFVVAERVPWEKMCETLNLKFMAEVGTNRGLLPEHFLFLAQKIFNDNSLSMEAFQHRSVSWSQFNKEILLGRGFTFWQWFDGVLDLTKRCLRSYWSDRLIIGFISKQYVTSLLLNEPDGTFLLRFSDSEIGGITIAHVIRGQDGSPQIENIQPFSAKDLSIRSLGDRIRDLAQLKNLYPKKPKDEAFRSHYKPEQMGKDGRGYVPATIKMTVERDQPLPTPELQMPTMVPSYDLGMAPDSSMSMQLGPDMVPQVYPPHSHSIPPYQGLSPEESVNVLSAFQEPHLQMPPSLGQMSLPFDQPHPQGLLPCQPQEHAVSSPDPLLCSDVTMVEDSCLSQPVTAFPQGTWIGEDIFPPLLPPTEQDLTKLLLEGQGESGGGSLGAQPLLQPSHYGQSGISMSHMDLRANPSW
In short: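 HeLa LgBiT clone 4.14 cells with CRISPR HiBiT-tagged endogenous STAT6, 5000 cells/well, compound dosed then incubated 4-24 h at 37° C, 5% CO2. Nano-Glo substrate added, 0.5 h, luminescence read as non-degraded STAT6. Terfenadine 50 μM (cell kill) defines 100% degradation.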

SMILES	EC50 [1] [nM]	DC50 [2] [nM]
CNc1cc(=O)n(-c2ccnc3c2cc(CN2CCC(c4c(F)cc(C(=O)N5CCC(CN6CCN(Cc7ccc8c(c7)n(C)c(=O)n8[C@@H]7CCC(=O)NC7=O)C[C@@H]6C)CC5)cc4F)CC2)n3C)cc1F (single isomer, unassigned) [Example 3u62]	1.2	1.2
CNc1cc(=O)n(-c2ccnc3c2cc([C@H](C)N2CC=C(c4c(C)cc(C(=O)N5CCC(CN6CCN(c7ccc8c(c7)C7(CC7)C(=O)N8[C@@H]7CCC(=O)NC7=O)C[C@@H]6C)CC5)cc4F)CC2)n3C)cc1F (single isomer, unassigned) [Example 3u64]	50.3	7.3
CNc1cc(=O)n(-c2ccnc3c2cc([C@H](C)N2CC=C(c4c(C)cc(C(=O)N5CCC(CN6CCN(Cc7ccc8c(c7)C7(CC7)C(=O)N8[C@H]7CCC(=O)NC7=O)CC6)CC5)cc4F)CC2)n3C)cc1F (single isomer, unassigned) [Example 3u67]	5.8	1.4
CNc1ccn(-c2ccnc3c2cc(CN2CC=C(c4c(F)cc(C(=O)N5CCC(CN6CCN(Cc7ccc8c(c7)n(C7CC7)c(=O)n8[C@H]7CCC(=O)NC7=O)C[C@@H]6C)CC5)cc4F)CC2)n3C)c(=O)c1 (single isomer, unassigned) [Example 3u72]	1.9	4.5
CNc1ccn(-c2ccnc3c2cc(CN2CC=C(c4c(F)cc(C(=O)N5CCC(CN6CCN(Cc7ccc8c(c7)n(C7CC7)c(=O)n8[C@@H]7CCC(=O)NC7=O)C[C@@H]6C)CC5)cc4F)CC2)n3C)c(=O)c1 (single isomer, unassigned) [Example 3u73]	2.4	6.8
CNc1cc(=O)n(-c2ccnc3c2cc(CN2CC=C(c4c(F)cc(C(=O)N5CCC(CN6CCN(Cc7ccc8c(c7)C(C)(C)C(=O)N8[C@H]7CCC(=O)NC7=O)C[C@@H]6C)CC5)cc4F)CC2)n3C)cc1F (single isomer, unassigned) [Example 3u78]	45.9	9.8
CNc1cc(=O)n(-c2ccnc3c2cc(CN2CCC(c4c(F)cc(C(=O)N5CCC(CN6CCN(Cc7cc8c(cc7F)N([C@H]7CCC(=O)NC7=O)C(=O)C87CC7)CC6)CC5)cc4F)CC2)n3C)cc1F (single isomer, unassigned) [Example 3u94]	23.8	10.2
CNc1cc(=O)n(-c2ccnc3c2cc(CN2CCC(c4c(F)cc(C(=O)N5CCC(CN6CCN(Cc7cc8c(cc7F)N([C@@H]7CCC(=O)NC7=O)C(=O)C87CC7)CC6)CC5)cc4F)CC2)n3C)cc1F (single isomer, unassigned) [Example 3u95]	12.4	18.6
CNc1cc(=O)n(-c2ccnc3c2cc([C@H](C)N2CC=C(c4c(C)cc(C(=O)N5CCC(CN6CCN(Cc7ccc8c(c7)C7(CC7)C(=O)N8[C@H]7CCC(=O)NC7=O)C[C@@H]6C)CC5)cc4F)CC2)n3C)cc1F (single isomer, unassigned) [Example 3u99]	1.7	1.1
CNc1cc(=O)n(-c2ccnc3c2cc([C@H](C)N2CC=C(c4c(C)cc(C(=O)N5CCC(CN6CCN(Cc7ccc8c(c7)C7(CC7)C(=O)N8[C@@H]7CCC(=O)NC7=O)C[C@@H]6C)CC5)cc4F)CC2)n3C)cc1F (single isomer, unassigned) [Example 3u100]	3.1	1.7

The remaining compounds from weak to strong by EC50 [1], led by results:

EC50 [1] [nM]	DC50 [2] [nM]	SMILES
107	15.4	CNc1cc(=O)n(-c2ccnc3c2cc(CN2CC=C(c4c(F)cc(C(=O)N5CCC(CN6CCN(Cc7ccc8c(c7)C(C)(C)C(=O)N8[C@@H]7CCC(=O)NC7=O)C[C@@H]6C)CC5)cc4F)CC2)n3C)cc1F (single isomer, unassigned) [Example 3u79]
43.7	4.1	CNc1cc(=O)n(-c2ccnc3c2cc([C@H](C)N2CC=C(c4c(C)cc(C(=O)N5CCC(CN6CCN(Cc7ccc8c(c7)C(C)(C)C(=O)N8[C@@H]7CCC(=O)NC7=O)CC6)CC5)cc4F)CC2)n3C)cc1F (single isomer, unassigned) [Example 3u89]
12.9	3.3	CNc1cc(=O)n(-c2ccnc3c2cc([C@H](C)N2CC=C(c4c(C)cc(C(=O)N5CCC(CN6CCN(Cc7ccc8c(c7)C(C)(C)C(=O)N8[C@H]7CCC(=O)NC7=O)CC6)CC5)cc4F)CC2)n3C)cc1F (single isomer, unassigned) [Example 3u88]
7.8	1	CNc1cc(=O)n(-c2ccnc3c2cc([C@H](C)N2CC=C(c4c(C)cc(C(=O)N5CCC(CN6CCN(Cc7ccc8c(c7)C7(CC7)C(=O)N8[C@@H]7CCC(=O)NC7=O)CC6)CC5)cc4F)CC2)n3C)cc1F (single isomer, unassigned) [Example 3u68]
4.1	3.4	C[C@H]1CN(Cc2ccc3c(c2)n(C2CC2)c(=O)n3[C@@H]2CCC(=O)NC2=O)CCN1CC1CCN(C(=O)c2cc(F)c(C3CCN(Cc4cc5c(-n6ccc7c(c6=O)CCN7)ccnc5n4C)CC3)c(F)c2)CC1 (single isomer, unassigned) [Example 3u108]
3.7	1	CNc1cc(=O)n(-c2ccnc3c2cc([C@H](C)N2CC=C(c4c(C)cc(C(=O)N5CCC(CN6CCN(Cc7ccc8c(c7)n(C7CC7)c(=O)n8[C@@H]7CCC(=O)NC7=O)C[C@@H]6C)CC5)cc4F)CC2)n3C)cc1F (single isomer, unassigned) [Example 3u120]
2.8	2.5	C[C@H]1CN(Cc2ccc3c(c2)n(C2CC2)c(=O)n3[C@H]2CCC(=O)NC2=O)CCN1CC1CCN(C(=O)c2cc(F)c(C3CCN(Cc4cc5c(-n6ccc7c(c6=O)CCN7)ccnc5n4C)CC3)c(F)c2)CC1 (single isomer, unassigned) [Example 3u107]
2.2	2.1	CNc1cc(=O)n(-c2ccnc3c2cc([C@H](C)N2CC=C(c4c(C)cc(C(=O)N5CCC(CN6CCN(Cc7ccc8c(c7)n(C7CC7)c(=O)n8[C@H]7CCC(=O)NC7=O)C[C@@H]6C)CC5)cc4F)CC2)n3C)cc1F (single isomer, unassigned) [Example 3u119]
1.8	0.4	CNc1cc(=O)n(-c2ccnc3c2cc([C@H](C)N2CC=C(c4c(C)cc(C(=O)N5CCC(CN6CCN(Cc7ccc8c(c7)n(C)c(=O)n8[C@@H]7CCC(=O)NC7=O)C[C@@H]6C)CC5)cc4F)CC2)n3C)cc1F (single isomer, unassigned) [Example 3u92]
1.8	1.3	CNc1cc(=O)n(-c2ccnc3c2cc([C@H](C)N2CC=C(c4c(F)cc(C(=O)N5CCC(CN6CCN(Cc7ccc8c(c7)n(C7CC7)c(=O)n8[C@@H]7CCC(=O)NC7=O)C[C@@H]6C)CC5)cc4F)CC2)n3C)cc1F (single isomer, unassigned) [Example 3u130]
1.4	0.6	CNc1cc(=O)n(-c2ccnc3c2cc([C@H](C)N2CC=C(c4c(C)cc(C(=O)N5CCC(CN6CCN(Cc7ccc8c(c7)n(C)c(=O)n8[C@H]7CCC(=O)NC7=O)C[C@@H]6C)CC5)cc4F)CC2)n3C)cc1F (single isomer, unassigned) [Example 3u91]
1.3	3.2	Cc1cc(C(=O)N2CCC(CN3CCN(Cc4cc5c(cc4F)n([C@@H]4CCC(=O)NC4=O)c(=O)n5C)CC3)CC2)cc(F)c1C1=CCN([C@@H](C)c2cc3c(-n4ccc5c(c4=O)CCN5)ccnc3n2C)CC1 (single isomer, unassigned) [Example 3u76]
1.2	1.9	CNc1cc(=O)n(-c2ccnc3c2cc(CN2CCC(c4c(F)cc(C(=O)N5CCC(CN6CCN(Cc7ccc8c(c7)n(C)c(=O)n8[C@H]7CCC(=O)NC7=O)C[C@@H]6C)CC5)cc4F)CC2)n3C)cc1F (single isomer, unassigned) [Example 3u61]
1.1	1.1	CNc1ccn(-c2ccnc3c2cc([C@H](C)N2CCC(c4c(F)cc(C(=O)N5CCC(CN6CCN(Cc7ccc8c(c7)C(C)(C)C(=O)N8[C@@H]7CCC(=O)NC7=O)C[C@@H]6C)CC5)cc4F)CC2)n3C)c(=O)c1 (single isomer, unassigned) [Example 3u82]
1	0.6	Cc1cc(C(=O)N2CCC(CN3CCN(Cc4cc5c(cc4F)n([C@H]4CCC(=O)NC4=O)c(=O)n5C)CC3)CC2)cc(F)c1C1=CCN([C@@H](C)c2cc3c(-n4ccc5c(c4=O)CCN5)ccnc3n2C)CC1 (single isomer, unassigned) [Example 3u75]
